# In US20090117167A1 (AlgoRx, priority 2002, published 2009):
# Where “and” joins values, the source holds several entries; their conditions need not be identical. Identical values can stand only once.
# Assays:
# [1] = design: species or system human; settings: in vivo
# Procedure: The pharmacokinetic parameters of Cmax, Tmax, AUC(0-tlast) and t½ were evaluated.
# [2] = tested on: subjects with osteoarthritis of the knee; test: Osteoarthritis of the knee safety study: safety and tolerability of intra-articular capsaicin; format: in vivo, human; settings: for patients reporting transient burning pain / post injection hyperalgesia after instillation: 4 subjects
# Procedure: The primary objective of the study was to evaluate the safety and tolerability of intra-articular capsaicin, when co-administered with intra-articular local anesthetic, compared to placebo, in subjects with end-stage osteoarthritis of the knee, already scheduled to receive knee replacements.
# The study was designed to include 16 evaluation subjects. […] Sixteen subjects completed the study.
# Patients were treated randomly and in double-blind fashion in four treatment groups, with each group having a progressively longer interval between the intra-articular administration of study medication and subsequent total knee replacement (2, 4, 7, and 14 days). […] Gross and microscopic pathology analysis was completed for each treatment group before the next treatment group was treated.
# (§1) Each subject had 3 study visits: a Screening Day (Day −7 to −1), the Treatment Day (Day 0), and a Post-Treatment Day (scheduled for Day +2, +4, +7, or +14). On the Treatment Day the subject was randomized, pre-treatment evaluation was performed. The patients were brought into the procedure room, and a VAS pain score was taken (0 mm-no pain, 100 mm-extreme pain). Once the patient had marked his or her pain on the card, he/she was prepped for knee cannulation. Once the cannula was placed, the patient received by intra-articular infiltration, 3 mg/kg (maximum dose of 200 mg) of 2% lignocaine into the knee scheduled to be replaced.
# (§2) VAS pain scores as well as verbal reports were taken immediately following administration, as well as prior to knee replacement surgery. No subjects discontinued from the study due to adverse events.
# [3] = tested on: rats; settings: systemic, cited from earlier work
# [4] = tested on: subjects undergoing transpositional osteotomy (bunionectomy); test: Bunionectomy efficacy study: VAS pain score and rescue medication; format: in vivo, human; settings: for VAS pain score at operation site: 1000 μg into wound, mean +/- SEM, n = 11
# Procedure: The primary efficacy endpoint was the proportion of subjects in each treatment group requiring opioid analgesia in the first 24 hours post-operatively. The proportions were compared amongst treatment groups using the Cochran-Haenszel test. Secondary efficacy end points included: i) proportion of subjects in each treatment group requiring opioid analgesia in the first 36 hour period post-operatively (Similarly, the proportions were compared amongst treatment groups using the Cochran-Haenszel test); ii) proportion of subjects in each treatment group requiring opioid analgesia in the 10 day period post-operatively (Similarly, the proportions were compared amongst treatment groups using the Cochran-Haenszel test); iii) time to first usage of opioid analgesia in each treatment group (a survival analysis approach will be used: the product-limit (Kaplan-Meier) method will be applied to time to first usage of opioid analgesia. The median time to first usage of opioid analgesia will be estimated in both treatment groups. Pairwise comparisons will be performed to test for equality of the survival curves between the 2 treatment groups using both the log-rank and the Wilcoxon test); iv) total usage of analgesia in each treatment group (the total usage of analgesia will be compared by an analysis of variance with treatment and center as independent variables. A pairwise comparison will be performed between the treatment groups); and v) VAS assessment of pain at the site of operation in each treatment group (The VAS score at each time point will be compared by an analysis of variance with treatment and center as independent variables. A pairwise comparison will be performed between the treatment groups). […] The efficacy analysis was performed on the data obtained ten days postoperatively. The safety analysis was performed based on the safety data for the entire study, including the 6 week and 12 week follow-up periods. The blind was broken at the time the efficacy analysis was performed. However, the individual treatment assignment was available to the statistical analysis group only. All other personnel involved in the study, including the Investigator, study monitor and proprietary staff, remained blinded until the entire study was completed.
# The study was designed to include 40 evaluation subjects. […] Each subject had six (6) study visits: a Screening Day (Day −28 to −1), an Operation Day (Day 0), and four (4) Follow-up visits (scheduled for Days 3, 10 and weeks 6 and 12).
# On Operation Day (Day 0) the following was performed: a) Pre-operation: Prior to the initiation of an ankle block, inclusion/exclusion criteria assessment was performed. […] Immediately prior to wound closure, the Investigator slowly dripped the study medication (4 mL) from a syringe into the wound, ensuring even tissue exposure. The wound was then be closed according to normal practices and procedures.
# In the 24 hours following administration of study medication, vital signs (supine pulse rate and blood pressure) were recorded at 1, 2, 4 and 24 hours post administration. VAS assessment of pain at the operation site was performed at 1, 4, 8, 12 and 24 hours post administration. In those instances where VAS measurements coincide with blood sampling procedures, the VAS assessment was performed first. […] The quantity of each blood sample was 10 mL. Laboratory safety assessments, e.g., haematology, biochemistry, urinalysis were performed at 24 hours post administration. Adverse events were spontaneously reported by the subject and recorded. Rescue analgesia medication was provided to the subject if required (initially diclofenac 50 mg, repeated at 8 hourly intervals if necessary). When diclofenac was judged by the Investigator to provide inadequate pain relief then the subject was provided with alfentanil 1 mg, repeated at 6 hourly intervals, if necessary.
# [5] = organic solvents; cited from earlier work
# [6] = tested on: subjects with osteoarthritis of the knee; test: Osteoarthritis of the knee safety study: VAS pain score at the target knee; format: in vivo, human
# Procedure: as §1, §2
# On the Post-Treatment Day, study evaluation was performed followed by the scheduled knee replacement, with intra-operative bone and soft tissue biopsies performed for subsequent examination. […] This therefore left the 3 placebo and 9 active patients from the 4 day, 7 day, and 14 day cohorts.
# [7] = tested on: animal models of neuropathic pain (spinal nerve ligation); settings: administered locally; cited from earlier work
# [8] = tested on: animal models of inflammatory pain (formalin test); settings: administered locally; cited from earlier work
compound,measurement,setting,value
"COc1cc(CNC(=O)CCCC/C=C/C(C)C)ccc1O [purified capsaicin, N-(4-hydroxy-3-methoxybenzyl)-8-methylnon-trans-6-enamide]",plasma concentrations compared with 100 μg or 300 μg dose groups,[1],clearly lower
same,patients reporting transient burning pain / post injection hyperalgesia after instillation,[2]; 10 μg intra-articular after 2% lignocaine,no subjects
same,patients reporting transient burning pain / post injection hyperalgesia after instillation,"[2]; 10 μg intra-articular after 2% lignocaine, listed as capsaicin",0 of 4
same,duration of post-administration (hyper) algesic pain,"[2]; 100 μg dose group, individual subject",9 min
same,patients reporting transient burning pain / post injection hyperalgesia after instillation,[2]; 100 μg intra-articular after 2% lignocaine,1
same,patients reporting transient burning pain / post injection hyperalgesia after instillation,"[2]; 100 μg intra-articular after 2% lignocaine, listed as capsaicin",1 of 4
same,patients reporting transient burning pain / post injection hyperalgesia after instillation,[2]; 300 μg intra-articular after 2% lignocaine,4
same,patients reporting transient burning pain / post injection hyperalgesia after instillation,"[2]; 300 μg intra-articular after 2% lignocaine, listed as capsaicin",4 of 4
same,effects on laboratory safety parameters or vital signs,[2]; 10-300 μg,no treatment related effects
same,"effects on soft tissue, cartilage, or bone upon histopathological examination",[2]; 10-300 μg,no treatment related effects
same,"signs of erythema, edema, or hemorrhage at the site of injection",[2]; 10-300 μg,no treatment related signs
same,systemic side effects,[2]; 10-300 μg,No treatment related systemic side effects
same,average duration of hyperalgesia,[2]; all cases,less than thirty minutes
same,gross and microscopic pathology,[2]; knee replaced 2-14 days after dosing,normal
same,effect on pain threshold,[3]; final doses 50 mg/kg or greater,pain threshold elevated
same,effect on radiation induced hyperalgesia and pain threshold,"[3]; final doses of 25 mg/kg or less, prior to ultra violet radiation","prevented radiation induced hyperalgesia, but did not elevate the pain threshold above normal range"
same,effect on pain score and use of rescue,[4]; 1000 μg into the wound prior to wound closure,reduced both pain score as well as the use of rescue
same,time at which subject required rescue,"[4]; 1000 μg, individual subjects",1 h and 4 h and 5 h and 8 h and 12 h
same,VAS pain score at operation site,[4]; 8 hr,5.5 +/− 2.3
same,VAS pain score at operation site,[4]; 12 hr,8.2 +/− 3.8
same,VAS pain score at operation site,[4]; 24 hr,1.9 +/− 1.0
same,VAS pain score at operation site,[4]; 48 hr,5.9 +/− 2.5
same,"solubility in alcohol, ether, benzene and chloroform",[5],freely soluble
same,"VAS reduction, prior to administration vs day of surgery","[6]; 9 active patients of 4, 7 and 14 day cohorts, 10-300 μg pooled",62±14%
same,median decrease from baseline to pre-operative time point in VAS for pain at target knee vs placebo,[6]; all 3 capsaicin dose groups,substantially greater
same,treatment related indication of efficacy (VAS),"[6]; any of the dose levels 10, 100, 300 μg",No clear treatment related indication of efficacy
CN(C)CCC=C1c2ccccc2CCc2ccccc21 [amitriptyline],local antinociceptive action,[7],produced local antinociceptive actions
same,local antinociceptive action,[8],produced local antinociceptive actions
CNCCCN1c2ccccc2CCc2ccccc21 [desipramine],local antinociceptive action,[7],produced local antinociceptive actions
same,local antinociceptive action,[8],produced local antinociceptive actions
